In patent publication US20100184213A1, “APOCRINE CELL LINE” (priority 2007, published 2010):

Legend:
[1] = tested on: proliferating apocrine cultures (ASG5); assay: Short circuit current (Isc) in Ussing chamber, proliferating apocrine cultures on Transwells; format: cell-based, human; settings: for Peak agonist Isc response, Control / Peak agonist Isc response, Chloride-free: proliferating (ASG5), Carbachol 20 μM; for Peak agonist Isc response, Control / Peak agonist Isc response after amiloride pre-treatment, Control: chloride-containing buffer; for Peak agonist Isc response, Control / Peak agonist Isc response, Chloride-free / Peak agonist Isc response after amiloride pre-treatment, Control / Peak agonist Isc response after amiloride pre-treatment, Chloride-free: Histamine 200 μM, ATP 100 μM; for Peak agonist Isc response after amiloride pre-treatment, Control / Peak agonist Isc response after amiloride pre-treatment, Chloride-free / ΔIsc (change of resting short circuit current): proliferating apocrine; for Peak agonist Isc response after amiloride pre-treatment, Control / Peak agonist Isc response after amiloride pre-treatment, Chloride-free: Carbachol 200 μM, Isoprenaline ≧1 μM, LBK 170 nM; for ΔIsc (change of resting short circuit current): furosemide 1 mM basolateral
Description: (§1) After 13-18 days, confluent ASG5 cultures were passaged onto Transwell collagen-coated permeable supports (0.33 cm^2 area, Costar, cat. no. 3495, High Wycombe, Bucks, UK). This involved incubation in 2% EDTA for 20 minutes, followed by trypsin (0.5%)-EDTA (0.2%) for approximately five minutes. 3×10^5 cells were transferred onto each Transwell supplemented with WEM. The Transwell supports were suspended in 24-well plates in 0.6 ml of the same medium. For primary cultures, only first passage cells were used in experiments. The medium bathing cultures on Transwells was changed every two days.
(§2) Transepithelial resistance (TER) across epithelia on Transwells was monitored using ‘chopstick’ electrodes (WPI, Alresford, Hants, UK) connected to an ohmmeter. The TER was estimated by subtracting the measurement for a moistened filter blank. At peak TER, the Transwell supports were mounted in an Ussing Chamber. Epithelia were bathed in a modified Krebs buffer, oxygenated and maintained at 37° C., pH 7.4, with 95% O2/5% CO2. The buffer consisted of (mM): NaCl, 117; KCl, 4.7; CaCl2, 1.5; MgSO4, 1.2; NaHCO3, 25; and glucose, 11.1. Voltage and current electrodes (calomel and silver/silver chloride respectively, ABB Kent Taylor, Stonehouse, Glos, UK), connected to a voltage/current clamp were extended into the bath via bridges containing agar dissolved in 3 M potassium chloride.
(§3) Voltage electrodes were balanced in the absence of a Transwell and fluid resistance between the voltage electrodes was compensated for by the injection of an arbitrary DC current. After mounting a Transwell the epithelium was short-circuited, the current allowed to stabilise, typically for 15 minutes. Given the rarity of apocrine material, drugs were typically added in succession as disclosed by Brayden et al (1988) J. Physiol, 405: 657-675, Pedersen et al (1992) Exp. Physiol, 77; 863-871, and Shen et al, (1994) Am. J. Physiol, 266: L493-501 and changes in short circuit current (I^sc) recorded. The duration of experiments was typically 15-60 min. TER was estimated using Ohm's Law, routinely by clamping the voltage at ±10 mV and measuring the current required to achieve this. Unless otherwise stated all drugs listed in the legend were added to the basolateral side, except for amiloride that was added to the apical side. Amiloride is an inhibitor of the epithelial Na^+ channel (ENaC) and the Na^+/H^+ exchanger.
(§4) Chloride substitution experiments were carried out in Krebs buffer in which sodium gluconate was substituted for NaCl, potassium gluconate for KCl and CaSO4 for CaCl2. Glucose-free experiments were carried out with 11.1 mM mannitol as a replacement to maintain osmolality. Experiments in which barium was used as an inhibitor of potassium channels were carried out in the absence of sulphate ions, such that MgCl2 replaced MgSO4.

[2] = tested on: primary apocrine cultures; assay: Short circuit current (Isc) in Ussing chamber, primary apocrine cultures on Transwells; format: cell-based, human; settings: for Peak agonist Isc response, Control / Peak agonist Isc response after amiloride pre-treatment, Control / Peak agonist Isc response, Chloride-free / Peak agonist Isc response after amiloride pre-treatment, Chloride-free / ΔIsc (change of resting short circuit current): primary apocrine; for Peak agonist Isc response, Control / Peak agonist Isc response after amiloride pre-treatment, Control: chloride-containing buffer; for Peak agonist Isc response, Control / Peak agonist Isc response, Chloride-free: Carbachol 20 μM; for Peak agonist Isc response, Control / Peak agonist Isc response after amiloride pre-treatment, Control / Peak agonist Isc response, Chloride-free / Peak agonist Isc response after amiloride pre-treatment, Chloride-free: Histamine 200 μM, ATP 100 μM; for Peak agonist Isc response after amiloride pre-treatment, Control / Peak agonist Isc response after amiloride pre-treatment, Chloride-free: Carbachol 200 μM, Isoprenaline ≧1 μM, LBK 170 nM; for ΔIsc (change of resting short circuit current): amiloride 10 μM apical, furosemide 1 mM basolateral
Description: as §1, §2, §3, §4

[3] = tested on: eccrine sweat gland cells; assay: Short circuit current (Isc) in Ussing chamber, primary eccrine sweat gland cells; format: cell-based; settings: amiloride 10 μM apical
[4] = tested on: primary cultures of apocrine secretory coils; assay: TPA treatment of primary cultures of apocrine secretory coils in MEGM; format: cell-based, human; settings: TPA 250 nM in MEGM; 3-4 days after addition
Description: A proliferating apocrine cell line was derived from primary cultures of apocrine secretory coils. After 7 days culture in MEGM, the potent phorbol ester, TPA (phorbol-12-myristate-13 acetate; ex Calbiochem, Nottingham, UK) was included in the medium at a concentration of 250 nM. […] Commonly, the ester comprises at least aliphatic substituent particularly suitably at the 12 and/or 13 positions, such as a long chain alkyl (C7 to C24) and optionally also a short chain alkyl (C2 to C6).
However, the upper differentiated layers were removed by repeated washing to leave a proliferative monolayer of cells still attached to the flask. Cells of the proliferative layer were passaged into 96 well plates to generate clonal cell lines. Cells were maintained, passaged and continued to grow in MEGM containing TPA for approximately 2 months. After this period cells were cultured in MEGM alone and monitored for continued proliferation. Initially, many subclones continued to grow, but by the end of the next 10 passages, the majority had begun to senesce. One culture, in particular, ASG5, continued to grow and has now been maintained in culture, proliferating over more than 40 passages with no signs of a reduction in growth rate. […] This culture continues to proliferate in the absence of TPA, can survive cryopreservation and is considered to be stable.

Molecule | Peak agonist Isc response, Control [1] [μA cm^−2] | Peak agonist Isc response, Chloride-free ([1]; chloride-free buffer) [μA cm^−2] | Peak agonist Isc response after amiloride pre-treatment, Control [1] [μA cm^−2] | Peak agonist Isc response after amiloride pre-treatment, Chloride-free ([1]; chloride-free buffer) [μA cm^−2] | Peak agonist Isc response, Control [2] [μA cm^−2] | Peak agonist Isc response after amiloride pre-treatment, Control [2] [μA cm^−2] | Peak agonist Isc response, Chloride-free ([2]; chloride-free buffer) [μA cm^−2] | Peak agonist Isc response after amiloride pre-treatment, Chloride-free ([2]; chloride-free buffer) [μA cm^−2] | other results
Nc1ncnc2c1ncn2[C@@H]1O[C@H](COP(=O)(O)OP(=O)(O)OP(=O)(O)O)[C@@H](O)[C@H]1O [ATP, Adenosine triphosphate] | 6.3 ± 1.8 | 4.0 ± 0.5 | 1.8 ± 0.3 | 0.8 ± 0.2 | 7.4 ± 1.8 | 4.9 ± 0.7 | 2.9 ± 0.9 | 4.3 ± 2.4 | –
N=C(N)NC(=O)c1nc(Cl)c(N)nc1N [Amiloride] | – | – | – | – | – | – | – | – | IC50 ([1]; Homo sapiens, apical amiloride, read-out: IC50 for amiloride (dose response curves, resting Isc)): 2 to 4 µM; carbachol stimulation of Isc after amiloride pre-treatment (FIG. 4A versus FIG. 3) ([1]; amiloride 10 μM apical, CCh 20 μM): reduced; effect of amiloride pre-treatment on peak Isc responses to CCh, His and ATP (FIG. 2) ([1]; amiloride 10 μM apical, CCh 20 μM, His 200 μM, ATP 100 μM basolateral): significantly reduced; reduction of basal Isc under chloride-free conditions ([1]; amiloride 10 μM, chloride-free buffer, proliferating cultures): 2.5 μA cm^−2; reduction of resting Isc ([1]; apically applied amiloride 10 μM, n=20, P<0.001): 4.5±1.0 μA cm^−2; ΔIsc (change of resting short circuit current) ([1]; amiloride 10 μM apical): −4.2 ± 1.0 μA cm^−2; ΔIsc (change of resting short circuit current) [3]: −7.1 ± 0.7 μA cm^−2; reduction of basal Isc under chloride-free conditions ([2]; amiloride 10 μM, chloride-free buffer, primary cultures): 3.6 μA cm^−2; ΔIsc (change of resting short circuit current) [2]: −6.0 ± 0.9 μA cm^−2
C[N+](C)(C)CCOC(N)=O [Carbachol] | 4.0 ± 0.7 | 3.0 ± 0.8 | 2.4 ± 0.6 | 1.3 ± 0.3 | 3.9 ± 0.7 | 6.3 ± 1.4 | 0.7 ± 0.6 | 1.7 ± 1.2 | –
NS(=O)(=O)c1cc(C(=O)O)c(NCc2ccco2)cc1Cl [Furosemide] | – | – | – | – | – | – | – | – | Inhibition by furosemide of agonist response, ΔIsc ([1]; 90 µM): −1.2 ± 0.3 μA cm^−2; Inhibition by furosemide of agonist response, ΔIsc ([1]; furosemide 90 μM, agonist ATP 100 μM, proliferating): −1.2 ± 0.3 μA cm^−2; Inhibition by furosemide of agonist response, ΔIsc ([1]; furosemide 90 μM, agonist Carbachol ≧20 μM, proliferating): −1.1 ± 0.4 μA cm^−2; Inhibition by furosemide of agonist response, ΔIsc ([1]; furosemide 90 μM, agonist Histamine 200 μM, proliferating): −1.0 ± 0.4 μA cm^−2; magnitude of Isc response to carbachol after furosemide pre-treatment (FIG. 4B versus FIG. 3) ([1]; furosemide 1 mM pre-treatment, CCh 20 μM): reduces the magnitude of response; ΔIsc (change of resting short circuit current) ([1]; amiloride 10 μM apical): −0.8 ± 0.3 μA cm^−2; agonist Isc responses on addition of furosemide after agonist stimulation ([1]; transformed apocrine cultures): rapid reduction in responses; Inhibition by furosemide of agonist response, ΔIsc ([2]; 90 µM): 0.8 ± 0.2 μA cm^−2; Inhibition by furosemide of agonist response, ΔIsc ([2]; furosemide 90 μM, agonist ATP 100 μM, primary): −2.6 ± 0.5 μA cm^−2; Inhibition by furosemide of agonist response, ΔIsc ([2]; furosemide 90 μM, agonist Carbachol ≧20 μM, primary): −2.0 ± 0.5 μA cm^−2; Inhibition by furosemide of agonist response, ΔIsc ([2]; furosemide 90 μM, agonist Histamine 200 μM, primary): −1.3 ± 0.2 μA cm^−2; agonist Isc responses on addition of furosemide after agonist stimulation ([2]; primary apocrine cultures): rapid reduction in responses; ΔIsc (change of resting short circuit current) [2]: −0.5 ± 0.2 μA cm^−2
NCCc1c[nH]cn1 [Histamine] | 4.8 ± 1.3 | 3.3 ± 0.8 | 1.9 ± 0.4 | 1.0 ± 0.2 | 6.4 ± 1.3 | 4.2 ± 0.5 | 1.7 ± 0.5 | 2.4 ± 1.4 | –
CC(C)NCC(O)c1ccc(O)c(O)c1 (stereo not shown) [Isoprenaline] | – | – | 1.8 ± 0.4 | 0.8 ± 0.2 | – | 1.8 ± 0.4 | – | 0.7 ± 0.3 | –
CCCCCCCCCCCCCC(=O)O[C@@H]1[C@@H](C)[C@@]2(O)[C@@H](C=C(CO)C[C@]3(O)C(=O)C(C)=C[C@@H]23)[C@@H]2C(C)(C)[C@]12OC(C)=O [TPA, phorbol-12-myristate-13 acetate] | – | – | – | – | – | – | – | – | effect on culture morphology (multilayering) [4]: induced premature multilayering
L-bradykinin (RPPGFSPFR; Bradykinin; UniProt P01042 381-389, looked up) [LBK, agonist added basolaterally] | – | – | 1.6 ± 0.3 | 0.9 ± 0.3 | – | 2.0 ± 0.5 | – | 0.6 ± 0.4 | –
